Measured values taken from ChEMBL document CHEMBL1201862, “PubChem BioAssay data set” (2004).
The source made the active and inactive calls.

Key:
[1] = intracellular Trypanosoma cruzi inhibitors in host cells – cell-based, plate reader, cherry-pick samples, set 3, dose response (AID 651818); assay type: functional;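 also: compounds incubated with infected cells for about four days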
[2] = biological target: Protein Wnt-3a (Mus musculus, UniProt P27467); assay: Wnt3a-driven reporter signaling inhibition, dose response, selectivity assay for Gli-SUFU antagonist project, Wnt-LIGHT cells, luminescence (AID 651570); assay type: functional; details: read-out: IC50_Mean;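 also: Wnt-LIGHT reporter cells stimulated with conditioned medium from Wnt3a-producing cells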
Chain of Protein Wnt-3a (P27467 whole entry): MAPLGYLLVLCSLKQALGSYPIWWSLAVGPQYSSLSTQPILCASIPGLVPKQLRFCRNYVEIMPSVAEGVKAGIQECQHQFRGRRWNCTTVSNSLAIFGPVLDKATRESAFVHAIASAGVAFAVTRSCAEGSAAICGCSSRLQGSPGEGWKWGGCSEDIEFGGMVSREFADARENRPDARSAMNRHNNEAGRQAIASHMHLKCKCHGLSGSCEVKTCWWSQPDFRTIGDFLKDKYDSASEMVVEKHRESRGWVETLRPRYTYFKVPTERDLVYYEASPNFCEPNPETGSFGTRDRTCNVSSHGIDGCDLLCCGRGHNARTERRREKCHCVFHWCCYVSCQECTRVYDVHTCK

[3] = cytotoxicity in HEK-293T cells, dose response, cytotoxicity control for TCR NF-kB inhibitor project, luminescence, T-cell screen hits (AID 489026); assay type: functional, cell-based;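 also: cells exposed to compound about 14 hours before the viability readout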
[4] = biological target: T1, Short transient receptor potential channel 4 (Mus musculus, UniProt Q9QUQ5); assay: mouse TRPC4 channel inhibitors, dose response, cell-based, HEK293 TRPC4/mu-opioid, Fluo-4 calcium (AID 434942); assay type: functional;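 also: potency of inhibitors blocking the TRPC4 calcium response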
T1 sequence (Q9QUQ5 whole entry): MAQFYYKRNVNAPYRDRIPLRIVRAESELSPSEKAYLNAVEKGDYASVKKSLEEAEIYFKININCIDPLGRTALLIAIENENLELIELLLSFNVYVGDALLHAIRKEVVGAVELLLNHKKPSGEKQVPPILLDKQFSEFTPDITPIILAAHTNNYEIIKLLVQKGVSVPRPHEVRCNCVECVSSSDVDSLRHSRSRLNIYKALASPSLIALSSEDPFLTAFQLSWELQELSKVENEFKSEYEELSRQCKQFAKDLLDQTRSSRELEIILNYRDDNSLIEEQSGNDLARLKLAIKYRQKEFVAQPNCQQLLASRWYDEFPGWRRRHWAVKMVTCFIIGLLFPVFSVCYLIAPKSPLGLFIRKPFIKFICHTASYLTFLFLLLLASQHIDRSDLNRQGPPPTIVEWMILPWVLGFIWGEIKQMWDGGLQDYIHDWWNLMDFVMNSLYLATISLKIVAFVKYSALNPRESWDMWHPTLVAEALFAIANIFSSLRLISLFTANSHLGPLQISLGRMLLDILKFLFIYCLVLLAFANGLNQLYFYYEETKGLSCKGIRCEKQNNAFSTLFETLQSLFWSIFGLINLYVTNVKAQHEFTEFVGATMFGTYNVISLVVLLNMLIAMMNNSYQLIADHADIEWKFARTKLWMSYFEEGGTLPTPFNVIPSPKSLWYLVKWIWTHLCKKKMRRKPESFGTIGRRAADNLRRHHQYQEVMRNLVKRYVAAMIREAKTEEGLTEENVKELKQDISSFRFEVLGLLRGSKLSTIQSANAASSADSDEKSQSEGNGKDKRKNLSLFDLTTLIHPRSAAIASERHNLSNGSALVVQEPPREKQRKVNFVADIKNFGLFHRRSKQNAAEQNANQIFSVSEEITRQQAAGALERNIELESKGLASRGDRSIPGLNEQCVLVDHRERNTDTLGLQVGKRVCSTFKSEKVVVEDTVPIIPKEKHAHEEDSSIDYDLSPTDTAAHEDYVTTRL

[5] = biological target: T2, Sentrin-specific protease 1 (Homo sapiens, UniProt Q9P0U3); assay: Dose response confirmation of small molecule inhibitors of the catalytic domain of the SUMO protease, SENP1 in a FRET assay.; assay type: functional; details: read-out: IC50_Mean
T2 sequence (Q9P0U3 whole entry): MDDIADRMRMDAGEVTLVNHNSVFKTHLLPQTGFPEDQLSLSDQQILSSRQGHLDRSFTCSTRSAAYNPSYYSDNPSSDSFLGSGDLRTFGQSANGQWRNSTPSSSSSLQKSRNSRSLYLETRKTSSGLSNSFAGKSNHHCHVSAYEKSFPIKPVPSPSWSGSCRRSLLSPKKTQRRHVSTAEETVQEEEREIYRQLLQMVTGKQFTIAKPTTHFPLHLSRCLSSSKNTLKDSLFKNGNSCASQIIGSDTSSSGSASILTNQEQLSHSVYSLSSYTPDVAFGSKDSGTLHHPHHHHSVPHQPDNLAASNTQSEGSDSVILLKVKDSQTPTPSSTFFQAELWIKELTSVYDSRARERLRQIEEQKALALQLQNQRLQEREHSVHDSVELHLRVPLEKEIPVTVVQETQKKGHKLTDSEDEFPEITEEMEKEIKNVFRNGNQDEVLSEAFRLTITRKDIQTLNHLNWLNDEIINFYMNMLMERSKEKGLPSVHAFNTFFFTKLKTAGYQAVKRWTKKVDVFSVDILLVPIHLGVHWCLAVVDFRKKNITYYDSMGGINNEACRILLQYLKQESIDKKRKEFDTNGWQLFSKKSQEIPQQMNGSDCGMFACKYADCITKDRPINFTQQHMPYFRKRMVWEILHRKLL

[6] = biological target: T2, Sentrin-specific protease 1; assay: potency of human SENP1 inhibitors, dose response, biochemical, kinetic FRET (AID 651697); assay type: functional; details: read-out: IC50_Mean
[7] = test system: HEK293; assay: NOD1 signaling inhibitors, primary screen, cell-based, luminescence, uHTS (AID 1578); assay type: functional; details: Homo sapiens
[8] = biological target: T3, Replicative DNA helicase DnaB (Mycobacterium tuberculosis, UniProt P9WMR3); assay: DnaB intein splicing inhibitors, dose response, biochemical, cell-free fluorescence (AID 449749); assay type: functional
T3 sequence (P9WMR3 whole entry): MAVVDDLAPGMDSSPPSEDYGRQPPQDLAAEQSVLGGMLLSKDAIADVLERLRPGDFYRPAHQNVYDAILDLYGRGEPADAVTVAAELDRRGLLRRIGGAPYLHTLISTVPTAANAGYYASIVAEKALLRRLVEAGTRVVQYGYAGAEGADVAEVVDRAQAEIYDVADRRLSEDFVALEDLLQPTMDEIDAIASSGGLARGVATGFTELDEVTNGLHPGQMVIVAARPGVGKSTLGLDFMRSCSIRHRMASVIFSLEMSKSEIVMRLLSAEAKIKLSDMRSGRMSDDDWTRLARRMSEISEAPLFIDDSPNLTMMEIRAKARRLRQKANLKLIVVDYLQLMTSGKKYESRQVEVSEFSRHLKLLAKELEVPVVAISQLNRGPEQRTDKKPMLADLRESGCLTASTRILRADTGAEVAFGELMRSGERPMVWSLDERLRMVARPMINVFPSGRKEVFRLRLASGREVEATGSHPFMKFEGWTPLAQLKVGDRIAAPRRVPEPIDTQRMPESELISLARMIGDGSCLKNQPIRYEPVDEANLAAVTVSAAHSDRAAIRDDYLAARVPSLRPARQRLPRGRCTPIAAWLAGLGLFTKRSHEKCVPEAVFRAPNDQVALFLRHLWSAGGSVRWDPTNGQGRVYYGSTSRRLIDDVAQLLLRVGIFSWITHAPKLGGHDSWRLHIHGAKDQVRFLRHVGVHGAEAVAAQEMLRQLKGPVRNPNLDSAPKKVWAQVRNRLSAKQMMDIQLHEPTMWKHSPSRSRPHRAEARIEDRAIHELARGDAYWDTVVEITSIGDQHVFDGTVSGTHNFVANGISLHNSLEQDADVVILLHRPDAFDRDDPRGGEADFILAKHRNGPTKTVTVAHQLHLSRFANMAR

[9] = test system: HEK293; assay: cells; assay type: functional, cell-based; details: Homo sapiens
[10] = test system: HEK293; assay: cells; assay type: functional, cell-based; details: Homo sapiens; remark: listed apart in the source
[11] = test system: HEK293; assay: NOD2 signaling inhibitors in MDP-stimulated cells, cell-based, uHTS, luminescence (AID 2001); assay type: functional; details: Homo sapiens
[12] = test system: INS1; assay: beta cell apoptosis inhibitors, cytokine rescue, dose response, luminescence, retest (AID 449756); assay type: functional, cell-based; details: Rattus norvegicus;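 also: cell death triggered by IL-1 beta plus TNF-alpha plus IFN-gamma mixture; protective hits raise ATP signal compared with cytokine alone wells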
[13] = biological target: T4, Protein RecA (Mycobacterium tuberculosis, UniProt P9WHJ3); assay: Fluorescence Cell-Free Homogeneous Dose Retest to Identify Inhibitors of RecA-Intein Splicing Activity. [Related pubchem assays (depositor defined):AID2097, AID2223, AID489010, AID492950]; assay type: functional
T4 sequence (P9WHJ3 whole entry): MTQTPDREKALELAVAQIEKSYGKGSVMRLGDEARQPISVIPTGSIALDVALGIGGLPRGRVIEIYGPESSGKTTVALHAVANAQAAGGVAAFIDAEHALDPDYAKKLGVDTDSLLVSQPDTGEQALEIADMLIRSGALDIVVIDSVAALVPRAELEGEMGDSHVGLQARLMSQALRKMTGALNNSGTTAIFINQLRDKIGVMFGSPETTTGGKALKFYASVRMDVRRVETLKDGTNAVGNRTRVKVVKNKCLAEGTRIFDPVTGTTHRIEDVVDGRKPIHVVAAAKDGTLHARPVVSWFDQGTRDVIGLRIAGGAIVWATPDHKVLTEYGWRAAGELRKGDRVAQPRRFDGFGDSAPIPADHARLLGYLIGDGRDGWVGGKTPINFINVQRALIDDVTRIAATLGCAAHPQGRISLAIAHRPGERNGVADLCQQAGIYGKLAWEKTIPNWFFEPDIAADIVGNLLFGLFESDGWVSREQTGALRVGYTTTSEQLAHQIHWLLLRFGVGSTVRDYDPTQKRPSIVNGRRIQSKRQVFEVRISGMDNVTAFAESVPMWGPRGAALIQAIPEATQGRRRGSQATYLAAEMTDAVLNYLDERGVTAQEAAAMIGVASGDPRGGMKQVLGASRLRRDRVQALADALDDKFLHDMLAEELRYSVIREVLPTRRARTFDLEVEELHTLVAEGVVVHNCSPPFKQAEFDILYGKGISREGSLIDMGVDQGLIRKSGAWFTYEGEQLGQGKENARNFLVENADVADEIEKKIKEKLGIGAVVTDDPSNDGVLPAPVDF

For COc1ccc(CN(C)C[C@H]2Oc3ccc(NC(=O)Cc4cn(C)c5ccccc45)cc3CC(=O)N([C@@H](C)CO)C[C@@H]2C)cc1, the AC50 [1] was 3.08 µM (active).

For C[C@H](CO)N1C[C@H](C)[C@H](CN(C)Cc2ccc(C(F)(F)F)cc2)Oc2ccc(NC(=O)Nc3ccc(C(F)(F)F)cc3)cc2CC1=O, the AC50 [1] was 2.66 µM (active).

For C[C@H]1CN([C@@H](C)CO)C(=O)c2cccc(NC(=O)C3CC3)c2O[C@@H]1CN(C)Cc1ccc(Oc2ccccc2)cc1, the AC50 [1] was 3.64 µM (active).

In the case of CC(C)(C)OC(=O)NCCCCCc1cn(CC(=O)NCCCCCCCCCCC(=O)N2CCN(C(=O)OC(C)(C)C)CC2)nn1, the IC50 [2] is reported as 21.9 µM (inactive) and the IC50 [3] is reported as > 80 µM (inactive).

For OCCNCc1cc(Br)ccc1OCc1ccc(F)cc1, the EC50 [4] was 1.88 µM (active).

For COc1cc(O)c(C=Nc2ccccc2NS(=O)(=O)c2ccc(C)cc2)c(OC)c1, the IC50 [5] was 15.2 µM (active) and the IC50 [6] was 16.1 µM (active).

For C[C@@H]1CN([C@H](C)CO)C(=O)c2cccc(NS(=O)(=O)c3ccc(F)cc3)c2O[C@@H]1CN(C)Cc1ccc(C(=O)Nc2ccccc2N)cc1, the AC50 [1] was 2.86 µM (active).

For O=C(c1ccc(Cl)cc1)C1CCCN(C2CCSCC2)C1 (configuration not stated), the EC50 [4] was 0.531 µM (active).

In the case of C[C@@H]1CN([C@@H](C)CO)C(=O)Cc2cc(NC(=O)Nc3cccc4ccccc34)ccc2O[C@@H]1CN(C)Cc1ccc(Cl)c(Cl)c1, the AC50 [1] is reported as 3.21 µM (active).

In the case of O=C(C(Cl)Cl)N1c2ccccc2OCC1c1ccccc1 (configuration not stated), the EC50 [7] is reported as 13.8 µM (active), the AC50 [8] is reported as 10 µM (active) and the IC50 [9] is reported as 16.9 µM (active). The IC50 [10] was > 20 µM (inactive), the IC50 [11] was > 20 µM (inactive) and the AC50 [12] was 8.54 µM (active). For the same molecule, the EC50 [13] was 1.25 µM (active).

For COc1cc(/C=N/Nc2nc3c(c(=O)n(C)c(=O)n3C)n2Cc2ccccc2)ccc1OC(=O)c1ccco1, the EC50 [7] was 5.22 µM (active), the IC50 [9] was 3.73 µM (active) and the IC50 [10] was 12.3 µM (active). For the same molecule, the IC50 [11] was 5.98 µM (active).
